Experimental data published in patent US7932291B2, “Use of L-carnitine and its alkanoyl derivatives as osmotic agents in solutions for medical use” (Sigma-Tau Industrie Farmaceutiche Riunite S.p.A., priority 1999, dated 2011).

System: male Sprague-Dawley rats
Experiment: In-vivo peritoneal dialysis in rats: fluid volume recovered from the peritoneum
Set-up: species or system rat
Experimental: The peritoneal dialysis experiment was conducted in male Sprague-Dawley rats weighing 500-600 g (Charles River) maintained on a standard diet with water ad libitum. The animals were anaesthetized with an intraperitoneal injection of inactin (100 mg/kg) and were placed on an operating table at controlled temperature. The animals were submitted to a tracheostomy to cannulate the left jugular vein with a PESO medical silicone tube. Thirty minutes after administration of the anaesthetic the animals were infused with a saline solution at a rate of 2.3 ml/h throughout the period of the experiment. The dialysis solution (15 ml), after preheating to 37° C., was inoculated into the peritoneal cavity with a 15 teflon needle-cannula 1 h after administration of the anaesthetic. The amount of fluid injected was determined by weighing the syringe before and after injection of the fluid, using an electronic scale. At the end of each analysis period (2, 4 and 6 h), incisions were made in the rats' abdomens with an acusector and all the fluid present in the peritoneum was aspirated with a 1 ml syringe. After removing the surface fluid, the intestines were carefully shifted from the abdominal cavity to collect the residual fluid remaining on the dorsal wall. The fluid recovered was placed in a beaker and weighed. […]

SMILES: C[N+](C)(C)C[C@H](O)CC(=O)[O-] [Carnitine, L-carnitine]
- Quality as osmotic agent compared with glucose (rat peritoneal dialysis, 1.5-4.25%): at least as good as glucose
- Time by which the increase in intraperitoneal fluid volume is completed / peak activity reached (rat, all concentrations used (1.5, 2.5, 4.25%)): ≤ 2 h
